Values joined by “and” are separate entries in the source; they are usually repeats but may differ in a detail not shown here. Equal entries are not always repeated.
Assays:
A549 cell = test: Cytotoxicity test (SRB method) for A549 cells; type: cell-based, human; details: Homo sapiens, A549, 48 h, read-out: ED50(nM) for A549
Method in brief: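 SRB assay: cells seeded 24 h at 37 °C, then exposed 48 h to samples at 0.1, 0.03, 0.01 and 0.003 mg/ml final. TCA-fixed, SRB-stained, OD read at 520 nm. Growth is calculated against time-zero and untreated controls, and ED50 is the concentration giving 50% growth inhibition, obtained by regression.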

[1] = Weight change in the period of drug administration; type: in vivo, mouse
Experimental: (§1) Each group includes 5 mice. After 24 hours from the transplantation, each test compound of formulae (1a) and (1b) was dissolved in 4% Tween 80 and injected peritoneally in the amount of 0.2 ml and in a concentration of 0.06 mmole/kg/day (that is, 0.06 mmole of each test compound was dissolved in 10 ml of 4% Tween 80, and then 0.2 ml of the resulting solution was peritoneally injected into a mouse). Only 4% Tween 80 was injected for the negative control group, and the same moles of etoposide (36 mg/kg) was injected for the positive control group. The injection was performed five times at 1, 2, 4, 7 and 8 days from the transplantation of cancer.
As an index of toxicity, the weight change during the period of drug administration was recorded for the compounds of formulae (1a) and (1b) compared with the comparison compound of Etoposide.

[2] = system: mouse leukemia cell line L1210; details: L1210 transplanted into CDF1 mouse, compared with the negative control (Terada et al. 1992); cited from earlier work
[3] = system: Lewis Lung Cancer Cell (LLC); test: Anti-cancer test for BDF1 mouse transplanted by Lewis Lung Cancer Cell, Experiment 2-1 (formulae 1a, 1b); type: in vivo; details: peritoneal injection 0.06 mmole/kg/day at days 1, 2, 4, 7, 8 (etoposide 36 mg/kg), cancer volume at 14 to 16 days
Source text: In order to evaluate the anti-cancer activity of the compounds of the present invention, LLC, which is a lung cancer cell of mouse, was transplanted into the hypodermic region of BDF1 mouse to induce a solid cancer. […] Experiment for the compounds of formulae (1a) and (1b) and that for the compound of formula (1c) were separately carried out.
Male BDF1 mouse (Weight 18 to 25 g), being in good health and purchased from Korea Biolink Co., was used as a test animal.
The mice were bred at a place controlled to the temperature of 23 to 24° C. while provided with water and feed ad libitum. As the feed, feed for mouse containing no antibiotics was used. The hypodermic tissue of C57BL/6 mouse, which includes cells cultured therein for 14 days, was taken up. Sterilized cold physiological saline was added to the tissue in the amount of 5 ml/g tissue to make a cell suspension. This cell suspension of 0.2 ml was transplanted into the hypodermic region of armpit of BDF1 mouse.
as §1
The anti-cancer effect was determined by measuring the volume of cancer of the control and test groups at 14 to 16 days from the administration of drugs and then calculated as follows. Volume of Cancer(mm^3)=Length(mm)×Width^2(mm^2)/2 Suppression Rate of Cancer Growth(%)=(C−T)×100(%)/C in which • C represents the average volume of cancer (mm^3) of the control group, and • T represents the average volume of cancer (mm^3) of the test group.

SMILES: COc1cc([C@@H]2c3cc4c(cc3C[C@H]3COC(=O)[C@@H]32)OCO4)cc(OC)c1OC [DPT, Deoxypodophyllotoxin]
- EC50 (A549 cell): 75.5 nM
- Weight of mouse, Day 1 ([1]; Day 1 from the cancer cell transplantation): 23.1 g
- Weight of mouse, Day 2 ([1]; Day 2 from the cancer cell transplantation): 23.9 g
- Weight of mouse, Day 3 ([1]; Day 3 from the cancer cell transplantation): 24 g
- Weight of mouse, Day 4 ([1]; Day 4 from the cancer cell transplantation): 24 g
- Weight of mouse, Day 5 ([1]; Day 5 from the cancer cell transplantation): 24.4 g
- Weight of mouse, Day 6 ([1]; Day 6 from the cancer cell transplantation): 25 g
- Weight of mouse, Day 7 ([1]; Day 7 from the cancer cell transplantation): 25 g
- Weight of mouse, Day 8 ([1]; Day 8 from the cancer cell transplantation): 24.9 g
- extension effect of life span [2]: about 12%
- Suppression Rate for LLC [3]: 60% and 60.2%
